Data: US20080125516A1, “Dispersible long-acting mold-proof polyurethanes or urethane adducts and mold-proof materials made thereof” (HEADWAY ADVANCED MATERIALS INC., priority 2006, published 2008)

Assay: Solubility in solvents
Format: physicochemical

Measured: Solubility

COC(=O)Nc1nc2ccccc2[nH]1 [Unmodified Mold-Proof Agent, methy benzimidazol-2-ylcarbamate]
<0.3%: Dimethylformamide (DMF) | Ethyl acetate (EAC) | Methanol (ME) | Methyl-Ethyl Ketone (MEK) | N,N-dimethylacetamide (DMAC)
